Values quoted from earlier work in patent publication US5739081A, “Water dispersible granules of liquid pesticides” (ICI Australia Operations Proprietary Ltd., priority 1992, dated 1998).
Converted amounts (≈) assume the structure as drawn. Where two headings read alike, the source gives them in different places.

| Compound | Solubility in water (in water) [µg/mL] | also measured |
| --- | --- | --- |
| CC(C)N(Cc1ccccc1)C(=O)C(C)(C)C [Tebutam] | – | Solubility in water (in water, in words): Almost Insoluble |
| COP(=O)(OC)OC1=C(Cl)C2C=CCC12 (stereo not drawn) [Heptenophos] | 2200 (≈ 8780 µM) | – |
| CCCCOCN(C(=O)CCl)c1c(CC)cccc1CC [Butachlor] | 23 (≈ 73.8 µM) | – |
| CCOC(=O)/C=C(C)/C=C/CC(C)CCCC(C)C (stereo not drawn) [Hydroprene] | 0.54 (≈ 2.03 µM) | – |
| CCOP(=S)(NC(C)CC)Oc1cc(C)ccc1[N+](=O)[O-] (stereo not drawn) [Butamifos] | 5.1 (≈ 15.3 µM) | – |
| CCCSP(=O)(OCC)Oc1cnn(-c2ccc(Cl)cc2)c1 (stereo not drawn) [Pyraclofos] | 33 (≈ 91.5 µM) | – |
| CC1(C)[C@H](C(=O)O[C@H](C#N)c2cccc(Oc3ccccc3)c2)[C@@H]1/C=C(\Cl)C(F)(F)F [Lambda-cyhalothrin] | 0.005 (≈ 0.0111 µM) | – |
| CCCN(CCC)C(=O)SCc1ccccc1 [Prosulfocarb] | 13.2 (≈ 52.5 µM) | – |
| COP(=S)(OC)Oc1ccc([N+](=O)[O-])c(C)c1 [Fenitrophion] | 14 (≈ 50.5 µM) | – |
| CCCCCCCCCCCCCN1CC(C)OC(C)C1 (stereo not drawn) [Tridemorph] | 11.7 (≈ 39.3 µM) | – |
| CCOP(=S)(OCC)Oc1ccc([N+](=O)[O-])cc1 [Parathion] | 24 (≈ 82.4 µM) | – |
| CCSCCSP(=S)(OC)OC [Thiometon] | 200 (≈ 812 µM) | – |
| CCSC(=O)N(CC(C)C)CC(C)C [Butylate] | 46 (≈ 212 µM) | – |
| CCc1cccc(C)c1N(C(=O)CCl)C(C)COC (stereo not drawn) [Metolachlor] | 530 (≈ 1870 µM) | – |
| CCN(CC)C(=O)SCc1ccc(Cl)cc1 [Thiobencarb] | 30 (≈ 116 µM) | – |
| CCOP(=S)(OCC)Oc1cc(C)nc(C(C)C)n1 [Diazinon] | – | Solubility in water (water): 40 µg/mL (≈ 131 µM) |
| CCSCCSP(=O)(OC)OC [Demeton-S-methyl] | 3300 (≈ 14300 µM) | – |
| CNC(=O)CSP(=O)(OC)OC [Omethoate] | 500 (≈ 2350 µM) | – |

| Compound | Solubility in water (in water) [µg/mL] | also measured |
| --- | --- | --- |
| CCCCN(CC)C(=O)SCCC [Pebulate] | 60 (≈ 295 µM) | – |
| CCOP(=O)(N=C1SCC(C)S1)OCC (stereo not drawn) [Mephosfolan] | 57 (≈ 212 µM) | – |
| CCCCOC(=O)[C@@H](C)Oc1ccc(Oc2ccc(C(F)(F)F)cn2)cc1 [Fluazifop-P-butyl] | 1 (≈ 2.61 µM) | – |
| CON=C(Cc1cccnc1)c1ccc(Cl)cc1Cl [Pyrifenox] | 115 (≈ 390 µM) | – |
| CCCSP(=O)(OCC)Oc1ccc(Br)cc1Cl (stereo not drawn) [Profenofos] | – | Solubility in water (water): 20 µg/mL (≈ 53.5 µM) |
| CCN(CC)c1nc(C)cc(OP(=S)(OC)OC)n1 [Pirimiphos-methyl] | 5 (≈ 16.4 µM) | – |
| C#CCOS(=O)OC1CCCCC1Oc1ccc(C(C)(C)C)cc1 (stereo not drawn) [Propargite] | 1.9 (≈ 5.42 µM) | – |
| CC1(C)C(/C=C(\Cl)C(F)(F)F)C1C(=O)OC(C#N)c1cccc(Oc2ccccc2)c1 (stereo not drawn) [Cyhalothrin] | 0.003 (≈ 0.00667 µM) | – |
| CCOP(=O)(OCC)OC(=CCl)c1ccc(Cl)cc1Cl [Chlorfenvinphos] | 145 (≈ 403 µM) | – |
| CCNP(=S)(OC)O/C(C)=C/C(=O)OC(C)C (stereo not drawn) [Propetamphos] | 110 (≈ 391 µM) | – |
| CCOP(=S)(OCC)SCCSCC [Disulfoton] | 25 (≈ 91.1 µM) | – |
| CCOP(=S)(NC(C)C)Oc1ccccc1C(=O)OC(C)C (stereo not drawn) [Isofenphos] | 23.8 (≈ 68.9 µM) | – |
| CC1(C)C(C=C(Cl)Cl)C1C(=O)OCc1cccc(Oc2ccccc2)c1 (stereo not drawn) [Permethrin] | – | Solubility in water (water): 0.2 µg/mL (≈ 0.511 µM) |
| Dinocap | – | Solubility in water (in water, in words): Sp. soluble |
| CCCC1COC(Cn2cncn2)(c2ccc(Cl)cc2Cl)O1 (stereo not drawn) [Propiconazole] | 110 (≈ 321 µM) | – |
| CC(Cc1ccc(C(C)(C)C)cc1)CN1C[C@@H](C)O[C@@H](C)C1 (stereo partly drawn) [Fenpropimorph] | 10 (≈ 33 µM) | – |
| CCOP(=S)(OCC)SCCl [Chlorimephos] | – | Solubility in water (water): 60 µg/mL (≈ 256 µM) |
| C#CCON=C1CC2CCC1(C)C2(C)C (racemic) [Heptopargil] | 1000 (≈ 4870 µM) | – |
